Like-named read-outs stand apart in the source and are kept apart here.
Tests used:
[1] = system: mock-infected MT-2 cell
Method: (§1) HIV-1IIIB Replication Inhibition Assay in MT-2 Lymphocytes. The evaluation of HIV-1 inhibition was carried out as follows. […] Control wells containing virus and cells only (no drug) and cells only (no virus or drug) were also prepared. A second identical set of samples were added to cells under the same conditions without virus (mock infection) for cytotoxicity determinations (CC50 defined below). […] On day 4 PI, the assay was terminated and culture supernatants were harvested for p24 antigen ELISA analysis. The compound cytotoxicity was determined by XTT using the mock-infected sample wells.

[2] = system: HIV-1NL4-3; assay: HIV-1NL4-3 replication inhibition assay in MT-4 lymphocytes (p24 antigen ELISA); format: cell-based
Source text: HIV-1NL4-3 Replication Inhibition Assay in MT-4 Lymphocytes. A previously described HIV-1 infectivity assay was used.^28,33 A 96-well microtiter plate was used to set up the HIV-1NL4-3 replication screening assay. NL4-3 variants at a multiplicity of infection (MOI) of 0.01 were used to infect MT4 cells. Culture supernatants were collected on day 4 post-infection for the p24 antigen capture using an ELISA kit from ZeptoMetrix Corporation (Buffalo, N.Y.).

[3] = system: mock-infected MT-4 cell; assay: Cytotoxicity in mock-infected MT-4 cells; format: cell-based
[4] = system: mock-infected MT-2 cell; assay: Cytotoxicity in mock-infected MT-2 cells (XTT); settings: concentration that inhibits mock-infected MT-2 cell growth by 50%
Method: as §1

[5] = system: HIV-1IIIB; assay: HIV-1IIIB replication inhibition assay in MT-2 lymphocytes (p24 antigen ELISA); format: cell-based; settings: HIV-1IIIB infected MT-2 cell lines, concentration that inhibits HIV-1IIIB replication by 50%, NS: no suppression at concentrations below the CC50
Method: as §1

[6] = HIV-1NL4-3 infected MT-4 cell lines, concentration that inhibits HIV-1NL4-3 replication by 50%

Row | Structure (SMILES) | CC50 [1] | CC50 [4] | EC50 [5] | further results
1 | Cc1cn([C@H]2C[C@H](N=[N+]=[N-])[C@@H](CO)O2)c(=O)[nH]c1=O [AZT, reference compound] | 1870 µM |  |  | 
2 | C=C(C)[C@@H]1CC[C@]2(C(=O)NCCCCCCCC(=O)N[C@@H](CC(C)C)[C@H](O)CC(=O)O)CC[C@]3(C)[C@H](CC[C@@H]4[C@@]5(C)CC[C@H](O)C(C)(C)[C@@H]5CC[C@]43C)[C@@H]12 [Compound 3b, IC9564, reference compound] |  |  |  | EC50 [2, 6]: 89 nM; CC50 [3]: > 10 µM
3 | C=C(C)[C@@H]1CC[C@]2(C(=O)NCCCCCCCNC(C)=O)CC[C@]3(C)[C@H](CC[C@@H]4[C@@]5(C)CC[C@H](O)C(C)(C)[C@@H]5CC[C@]43C)[C@@H]12 [Compound 4, A43-D, reference compound] |  |  |  | EC50 [2, 6]: 92 nM; EC50 ([2]; value of prior best entry inhibitor 4 as given in text, unit inferred): 100 nM; CC50 [3]: > 10 µM
4 | C=C(COCC)[C@@H]1CC[C@]2(C(=O)N[C@@H](CC(C)C)C(=O)O)CC[C@]3(C)[C@H](CC[C@@H]4[C@@]5(C)CC[C@H](O)C(C)(C)[C@@H]5CC[C@]43C)[C@@H]12 [Compound 10, N-[3β-Hydroxy-30-ethoxy-lup-20(29)-en-28-oyl]-leucine] |  | 40.7 µM | > 16.7 µM | 
5 | C=C(COCCC)[C@@H]1CC[C@]2(C(=O)N[C@@H](CC(C)C)C(=O)O)CC[C@]3(C)[C@H](CC[C@@H]4[C@@]5(C)CC[C@H](O)C(C)(C)[C@@H]5CC[C@]43C)[C@@H]12 [Compound 11, N-[3β-Hydroxy-30-propoxy-lup-20(29)-en-28-oyl]-leucine] |  | 25.3 µM | > 16.7 µM | 
6 | C=C(COCCCC)[C@@H]1CC[C@]2(C(=O)N[C@@H](CC(C)C)C(=O)O)CC[C@]3(C)[C@H](CC[C@@H]4[C@@]5(C)CC[C@H](O)C(C)(C)[C@@H]5CC[C@]43C)[C@@H]12 [Compound 12, N-[3β-Hydroxy-30-butoxy-lup-20(29)-en-28-oyl]-leucine] |  | 24.9 µM | > 16.7 µM | 
7 | C=C(COCCc1ccccc1)[C@@H]1CC[C@]2(C(=O)N[C@@H](CC(C)C)C(=O)O)CC[C@]3(C)[C@H](CC[C@@H]4[C@@]5(C)CC[C@H](O)C(C)(C)[C@@H]5CC[C@]43C)[C@@H]12 [Compound 13, N-[3β-Hydroxy-30-phenethoxy-lup-20(29)-en-28-oyl]-leucine] |  | 21.7 µM | > 16.7 µM | 
8 | C=C(COCCc1ccc(OC)cc1)[C@@H]1CC[C@]2(C(=O)N[C@@H](CC(C)C)C(=O)O)CC[C@]3(C)[C@H](CC[C@@H]4[C@@]5(C)CC[C@H](O)C(C)(C)[C@@H]5CC[C@]43C)[C@@H]12 [Compound 14, N-[3β-Hydroxy-30-(4′-methoxyphenethoxy)-lup-20(29)-en-28-oyl]-leucine] | 16.7 µM |  | > 16.7 µM | 
9 | C=C(COCCc1ccc(F)cc1)[C@@H]1CC[C@]2(C(=O)N[C@@H](CC(C)C)C(=O)O)CC[C@]3(C)[C@H](CC[C@@H]4[C@@]5(C)CC[C@H](O)C(C)(C)[C@@H]5CC[C@]43C)[C@H]12 [Compound 15, N-[3β-Hydroxy-30-(4% fluorophenethoxy)-lup-20(29)-en-28-oyl]-leucine] | 24.4 µM |  | > 16.7 µM | 
10 | C=C(COCCc1ccc(Br)cc1)[C@@H]1CC[C@]2(C(=O)N[C@@H](CC(C)C)C(=O)O)CC[C@]3(C)[C@H](CC[C@@H]4[C@@]5(C)CC[C@H](O)C(C)(C)[C@@H]5CC[C@]43C)[C@@H]12 [Compound 16, N-[3β-Hydroxy-30-(4′-bromophenethoxy)-lup-20(29)-en-28-oyl]-leucine] | 20.8 µM |  | > 16.7 µM | 
11 | C=C(COCCc1ccc(Cl)cc1)[C@@H]1CC[C@]2(C(=O)N[C@@H](CC(C)C)C(=O)O)CC[C@]3(C)[C@H](CC[C@@H]4[C@@]5(C)CC[C@H](O)C(C)(C)[C@@H]5CC[C@]43C)[C@@H]12 [Compound 17, N-[3β-Hydroxy-30-(4′-chlorophenethoxy)-lup-20(29)-en-28-oyl]-leucine] | 34.6 µM |  | 27.8 µM | 
12 | C=C(CN1CCOCC1)C1CCC2(C(=O)NC(CC(C)C)C(=O)O)CCC3(C)C(CCC4C5(C)CCC(O)C(C)(C)C5CCC43C)C12 (stereo not drawn) [Compound 18, N-[3β-Hydroxy-30-morpholino-lup-20(29)-en-28-oyl]-leucine] |  | 27.5 µM | > 16.7 µM | 
13 | C=C(COCCN1CCOCC1)[C@@H]1CC[C@]2(C(=O)N[C@@H](CC(C)C)C(=O)O)CC[C@]3(C)[C@H](CC[C@@H]4[C@@]5(C)CC[C@H](O)C(C)(C)[C@@H]5CC[C@]43C)[C@@H]12 [Compound 19, N-[3β-Hydroxy-30-(2′-morpholinoethoxy)-lup-20(29)-en-28-oyl]-leucine] | 35.8 µM |  | 26.6 µM | 
14 | C=C(C)[C@@H]1CC[C@]2(C(=O)N[C@@H](CC(C)C)C(=O)O)CC[C@]3(C)[C@H](CC[C@@H]4[C@@]5(C)CC[C@H](O)C(C)(C)[C@@H]5CC[C@]43C)[C@@H]12 [Compound 22, N-[3β-Hydroxy-lup-20(29)-en-28-oyl]-leucine] | 29.8 µM |  |  | 
15 | C=C(CBr)[C@@H]1CC[C@]2(C(=O)N[C@@H](CC(C)C)C(=O)O)CC[C@]3(C)[C@H](CC[C@@H]4[C@@]5(C)CC[C@H](O)C(C)(C)[C@@H]5CC[C@]43C)[C@@H]12 [Compound 24, N-[3β-Hydroxy-30-bromo-lup-20(29)-en-28-oyl]-leucine] |  | 26.8 µM | > 16.7 µM | 
16 | C=C(CBr)[C@@H]1CC[C@]2(C(=O)NCCCCCCCC(=O)O)CC[C@]3(C)[C@H](CC[C@@H]4[C@@]5(C)CC[C@H](O)C(C)(C)[C@@H]5CC[C@]43C)[C@@H]12 [Compound 25, N-[3β-Hydroxy-30-bromo-lup-20(29)-en-28-oyl]-8-aminooctanoic acid] | 36.9 µM |  | 2.3 µM | 
17 | C=C(CO)[C@@H]1CC[C@]2(C(=O)N[C@@H](CC(C)C)C(=O)O)CC[C@]3(C)[C@H](CC[C@@H]4[C@@]5(C)CC[C@H](O)C(C)(C)[C@@H]5CC[C@]43C)[C@@H]12 [Compound 28, N-[3β,30-Dihydroxy-lup-20(29)-en-28-oyl]-leucine] |  | 30.7 µM | > 16.7 µM | 
18 | C=C(CO)[C@@H]1CC[C@]2(C(=O)NCCCCCCCC(=O)O)CC[C@]3(C)[C@H](CC[C@@H]4[C@@]5(C)CC[C@H](O)C(C)(C)[C@@H]5CC[C@]43C)[C@@H]12 [Compound 29, N-[3β,30-Dihydroxy-lup-20(29)-en-28-oyl]-8-aminooctanoic acid] | 40.7 µM |  | 14.8 µM | 
19 | C=C(C)[C@@H]1CC[C@]2(C(=O)N[C@@H](CC(C)C)C(=O)O)CC[C@]3(C)[C@H](CC[C@@H]4[C@@]5(C)CC[C@H](NC(=O)CC(C)(C)C(=O)O)C(C)(C)[C@@H]5CC[C@]43C)[C@@H]12 [Compound 36, N′-[3β-(3′,3′-Dimethylsuccinyl)-lup-20(29)-en-28-oyl]-leucine] |  | 35.9 µM |  | EC50 ([5]; Human immunodeficiency virus 1, MT2): 13.2 µM; melting point: 248 to 250 °C
20 | C=C(C)[C@@H]1CC[C@]2(C(=O)N3CCC(CCCC(=O)O)CC3)CC[C@]3(C)[C@H](CC[C@@H]4[C@@]5(C)CC[C@H](OC(=O)CC(C)(C)C(=O)O)C(C)(C)[C@@H]5CC[C@]43C)[C@@H]12 [Compound 39, N-[3β-O-(3′,3′-Dimethylsuccinyl)-lup-20(29)-en-28-oyl]-4-piperidine butyric acid] |  | 20.8 µM | 0.015 µM | 
21 | C=C(C)[C@@H]1CC[C@]2(C(=O)N3CCC(CCCC(=O)O)CC3)CC[C@]3(C)[C@H](CC[C@@H]4[C@@]5(C)CC[C@H](OC(=O)CCC(C)(C)C(=O)O)C(C)(C)[C@@H]5CC[C@]43C)[C@@H]12 [Compound 40, N-[3β-O-(4′,4′-Dimethylglutaryl)-lup-20(29)-en-28-oyl]-4-piperidine butyric acid] |  | 33.2 µM | 0.23 µM | 
22 | C=C(C)[C@@H]1CC[C@]2(C(=O)N3CCC(CCCC(=O)NC)CC3)CC[C@]3(C)[C@H](CC[C@@H]4[C@@]5(C)CC[C@H](OC(=O)CC(C)(C)C(=O)O)C(C)(C)[C@@H]5CC[C@]43C)[C@@H]12 [Compound 45] |  | 33.3 µM | 0.067 µM | EC50 [2, 6]: 240 nM; CC50 [3]: > 10 µM
23 | C=C(C)[C@@H]1CC[C@]2(C(=O)N3CCC(CCCC(=O)N4CCOCC4)CC3)CC[C@]3(C)[C@H](CC[C@@H]4[C@@]5(C)CC[C@H](OC(=O)CC(C)(C)C(=O)O)C(C)(C)[C@@H]5CC[C@]43C)[C@@H]12 [Compound 46, N′-[N-[3β-O-(3′,3′-Dimethylsuccinyl)-lup-20(29)-en-28-oyl]-4-piperidine-butanoyl]-morpholine] |  | 19.2 µM | 0.011 µM | EC50 [2, 6]: 70 nM; CC50 [3]: 8.8 µM
24 | C=C(C)[C@@H]1CC[C@]2(C(=O)N3CCC(CCCC(=O)NCCN4CCOCC4)CC3)CC[C@]3(C)[C@H](CC[C@@H]4[C@@]5(C)CC[C@H](OC(=O)CC(C)(C)C(=O)O)C(C)(C)[C@@H]5CC[C@]43C)[C@@H]12 [Compound 47, N′-[N-[3β-O-(3′,3′-Dimethylsuccinyl)-lup-20(29)-en-28-oyl]-4-piperidine-butanoyl]-2-aminoethylmorpholine] |  | 17.3 µM | 0.007 µM | EC50 [2, 6]: 35 nM; CC50 [3]: 8.5 µM
25 | C=C(C)[C@@H]1CC[C@]2(C(=O)N3CCC(CCCC(=O)NCCCN4CCOCC4)CC3)CC[C@]3(C)[C@H](CC[C@@H]4[C@@]5(C)CC[C@H](OC(=O)CC(C)(C)C(=O)O)C(C)(C)[C@@H]5CC[C@]43C)[C@@H]12 [Compound 48, N′-[N-[3β-O-(3′,3′-Dimethylsuccinyl)-lup-20(29)-en-28-oyl]-4-piperidine-butanoyl]-3-aminopropylmorpholine] |  | 18.5 µM | 0.006 µM | EC50 [2, 6]: 31 nM; CC50 [3]: 8.6 µM
